# Active and inactive are the calls of the source. No cut-off for these calls is given here.
# Columns and labels:
# MKN-45 = experiment: Growth inhibition of human MKN45 cells after 48 hrs by SRB assay; format: functional, cell-based; conditions: MKN-45, 48 h
# Histone deacetylase 1 = Histone deacetylase 1 (Homo sapiens, UniProt Q13547); experiment: Inhibition of human HDAC1 using RHKKAc as substrate by fluorescence assay
# Tubulin (Bos taurus) = Tubulin (Bos taurus) (UniProt Q6B856+Q862L2+Q862F3); conditions: at 1 µM
# [1] = biological target: T1, Protein deacetylase HDAC6 (Homo sapiens) (UniProt Q9UBN7); experiment: Inhibition of human HDAC6 in human A549 cells assessed as increase in acetylated alpha-tubulin level at 0.6 to […] after 6 hrs by Western blot analysis; format: cell-based
# T1 sequence (whole entry): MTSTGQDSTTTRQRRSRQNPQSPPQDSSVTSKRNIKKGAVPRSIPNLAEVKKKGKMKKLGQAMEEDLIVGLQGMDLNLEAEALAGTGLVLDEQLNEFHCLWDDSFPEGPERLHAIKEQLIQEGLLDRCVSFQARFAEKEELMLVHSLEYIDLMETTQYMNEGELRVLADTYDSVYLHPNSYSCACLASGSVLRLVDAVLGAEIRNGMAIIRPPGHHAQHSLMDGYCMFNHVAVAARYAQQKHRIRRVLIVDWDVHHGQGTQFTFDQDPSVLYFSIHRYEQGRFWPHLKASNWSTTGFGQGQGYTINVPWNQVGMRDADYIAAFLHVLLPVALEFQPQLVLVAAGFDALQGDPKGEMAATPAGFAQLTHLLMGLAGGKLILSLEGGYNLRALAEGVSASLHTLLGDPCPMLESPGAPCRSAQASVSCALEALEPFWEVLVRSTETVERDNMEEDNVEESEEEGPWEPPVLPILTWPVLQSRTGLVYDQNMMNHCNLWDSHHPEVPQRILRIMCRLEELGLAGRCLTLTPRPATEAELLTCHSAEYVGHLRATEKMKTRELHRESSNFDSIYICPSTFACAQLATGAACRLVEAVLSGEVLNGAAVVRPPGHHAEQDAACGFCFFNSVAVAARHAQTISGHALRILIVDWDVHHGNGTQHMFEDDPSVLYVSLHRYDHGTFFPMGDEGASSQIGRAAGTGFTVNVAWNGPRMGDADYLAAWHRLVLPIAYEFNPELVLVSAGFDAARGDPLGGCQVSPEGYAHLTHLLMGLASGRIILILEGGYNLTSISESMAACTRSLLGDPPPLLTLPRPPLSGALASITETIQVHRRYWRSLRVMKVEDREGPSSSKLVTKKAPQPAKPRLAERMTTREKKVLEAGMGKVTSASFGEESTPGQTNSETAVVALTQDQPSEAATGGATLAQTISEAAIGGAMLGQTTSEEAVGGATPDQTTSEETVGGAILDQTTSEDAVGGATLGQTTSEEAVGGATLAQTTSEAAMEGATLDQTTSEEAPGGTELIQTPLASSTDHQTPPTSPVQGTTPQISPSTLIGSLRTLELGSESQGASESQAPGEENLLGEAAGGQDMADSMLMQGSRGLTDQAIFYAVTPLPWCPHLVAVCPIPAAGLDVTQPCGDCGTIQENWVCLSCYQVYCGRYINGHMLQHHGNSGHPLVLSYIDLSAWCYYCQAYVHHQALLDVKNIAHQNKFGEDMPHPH
# [2] = Growth inhibition of human KB-S15 cells after 48 hrs by SRB assay; format: functional; conditions: KB-S15, 48 h
# Histone deacetylase 9 = Histone deacetylase 9 (Homo sapiens, UniProt Q9UKV0); experiment: Inhibition of human HDAC9 using fluorogenic p53 (379-382) peptide RHKK(Ac) as substrate by fluorescence assay
# Histone deacetylase 2 = Histone deacetylase 2 (Homo sapiens, UniProt Q92769); experiment: Inhibition of human HDAC2 using RHKKAc as substrate by fluorescence assay
# [3] = Toxicity in nude Balb/c mouse xenografted with human A549 cells assessed as change in body weight at 50 mg/kg, ip daily measured up to 18 days; format: organism-based; conditions: in vivo, 432 h
# BJAB [4] = experiment: Antitumor activity against human BJAB cells xenografted in NOD/SCID mouse assessed as tumor growth inhibition at 50 mg/kg, iv daily for 5 days/week measured on day 25 post first dose; format: functional, organism-based
# [5] = biological target: T2, Polyamine deacetylase HDAC10 (Homo sapiens, UniProt Q969S8); experiment: Inhibition of human HDAC10 using RHKKAc as substrate by fluorescence assay; conditions: read-out: IC50
# T2 sequence (Q969S8 whole entry): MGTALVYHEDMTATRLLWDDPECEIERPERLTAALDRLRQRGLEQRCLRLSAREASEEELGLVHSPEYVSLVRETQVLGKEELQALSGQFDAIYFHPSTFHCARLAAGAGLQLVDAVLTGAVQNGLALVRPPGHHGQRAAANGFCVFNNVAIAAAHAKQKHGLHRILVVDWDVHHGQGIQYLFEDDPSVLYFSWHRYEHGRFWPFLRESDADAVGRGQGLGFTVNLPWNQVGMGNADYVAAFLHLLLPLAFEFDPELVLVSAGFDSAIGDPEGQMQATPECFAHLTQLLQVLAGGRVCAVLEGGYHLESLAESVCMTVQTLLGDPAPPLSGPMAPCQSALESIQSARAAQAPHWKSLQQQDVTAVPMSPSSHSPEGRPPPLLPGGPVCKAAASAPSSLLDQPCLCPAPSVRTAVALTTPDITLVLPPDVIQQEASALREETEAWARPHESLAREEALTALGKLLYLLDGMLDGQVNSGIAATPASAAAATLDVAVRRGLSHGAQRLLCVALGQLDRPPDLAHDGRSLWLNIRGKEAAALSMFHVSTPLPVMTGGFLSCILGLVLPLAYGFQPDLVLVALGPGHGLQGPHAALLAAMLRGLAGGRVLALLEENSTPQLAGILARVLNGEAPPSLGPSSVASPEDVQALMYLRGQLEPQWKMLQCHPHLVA
# A549 = experiment: Growth inhibition of human A549 cells after 48 hrs by SRB assay; format: functional, cell-based; conditions: A549, 48 h
# [6] = biological target: T3, Protein deacetylase HDAC6 (Homo sapiens, UniProt Q9UBN7); experiment: Inhibition of human HDAC6 using RHKKAc as substrate by fluorescence assay
# T3 sequence (Q9UBN7 whole entry): T1 sequence (whole entry)
# BJAB [7] = experiment: Growth inhibition of human BJAB cells assessed as cell viability at 40 nM after 48 hrs by MTT assay (reference value: 100%)
# [8] = Toxicity in NOD/SCID mouse xenografted with human BJAB cells assessed as change in body weight at 50 mg/kg, iv daily for 5 days/week measured on day 25 post first dose; format: organism-based; conditions: in vivo, 120 h
# BJAB [9] = experiment: Growth inhibition of human BJAB cells assessed as cell viability at 20 nM after 48 hrs by MTT assay (reference value: 100%)
# Sequence of Histone deacetylase 1 (Q13547 whole entry): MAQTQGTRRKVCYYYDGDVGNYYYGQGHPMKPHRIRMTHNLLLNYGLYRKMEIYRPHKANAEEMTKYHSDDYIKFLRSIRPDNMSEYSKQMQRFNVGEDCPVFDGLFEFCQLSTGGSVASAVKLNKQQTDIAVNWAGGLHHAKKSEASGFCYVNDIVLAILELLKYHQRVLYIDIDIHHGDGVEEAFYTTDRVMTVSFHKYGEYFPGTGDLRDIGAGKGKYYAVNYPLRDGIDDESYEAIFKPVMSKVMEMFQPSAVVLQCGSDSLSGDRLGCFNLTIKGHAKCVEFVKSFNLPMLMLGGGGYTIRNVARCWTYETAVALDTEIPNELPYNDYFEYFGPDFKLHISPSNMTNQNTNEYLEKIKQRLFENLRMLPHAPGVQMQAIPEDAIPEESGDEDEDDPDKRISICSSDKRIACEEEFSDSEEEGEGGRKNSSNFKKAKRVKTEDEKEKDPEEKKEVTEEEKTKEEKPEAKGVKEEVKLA
# Sequence of Histone deacetylase 9 (Q9UKV0 whole entry): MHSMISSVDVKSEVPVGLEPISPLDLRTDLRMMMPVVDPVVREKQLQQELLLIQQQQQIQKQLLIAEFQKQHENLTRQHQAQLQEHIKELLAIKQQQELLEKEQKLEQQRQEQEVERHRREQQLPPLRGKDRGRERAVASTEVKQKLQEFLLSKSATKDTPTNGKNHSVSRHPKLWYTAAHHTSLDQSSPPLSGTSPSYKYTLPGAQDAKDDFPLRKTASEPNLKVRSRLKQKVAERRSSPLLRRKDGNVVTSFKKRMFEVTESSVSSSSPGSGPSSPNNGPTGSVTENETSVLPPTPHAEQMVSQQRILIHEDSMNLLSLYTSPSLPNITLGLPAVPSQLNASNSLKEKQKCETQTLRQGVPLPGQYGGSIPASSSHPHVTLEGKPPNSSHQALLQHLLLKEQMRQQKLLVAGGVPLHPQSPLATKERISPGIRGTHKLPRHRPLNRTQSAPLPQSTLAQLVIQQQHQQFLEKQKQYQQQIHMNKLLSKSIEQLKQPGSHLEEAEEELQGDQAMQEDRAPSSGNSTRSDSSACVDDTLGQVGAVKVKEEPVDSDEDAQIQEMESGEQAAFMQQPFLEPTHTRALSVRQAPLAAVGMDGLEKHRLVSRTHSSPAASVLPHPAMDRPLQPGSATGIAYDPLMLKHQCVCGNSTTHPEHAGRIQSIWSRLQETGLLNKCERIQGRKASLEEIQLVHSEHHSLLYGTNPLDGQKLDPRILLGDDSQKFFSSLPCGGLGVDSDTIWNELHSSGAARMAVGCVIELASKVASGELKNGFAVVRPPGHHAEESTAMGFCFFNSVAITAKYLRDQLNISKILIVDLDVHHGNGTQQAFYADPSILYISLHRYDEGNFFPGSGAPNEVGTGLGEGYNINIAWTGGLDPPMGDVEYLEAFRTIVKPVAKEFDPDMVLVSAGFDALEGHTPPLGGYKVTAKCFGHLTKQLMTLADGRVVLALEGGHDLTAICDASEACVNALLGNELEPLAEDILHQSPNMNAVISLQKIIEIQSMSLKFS
# Sequence of Histone deacetylase 2 (Q92769 whole entry): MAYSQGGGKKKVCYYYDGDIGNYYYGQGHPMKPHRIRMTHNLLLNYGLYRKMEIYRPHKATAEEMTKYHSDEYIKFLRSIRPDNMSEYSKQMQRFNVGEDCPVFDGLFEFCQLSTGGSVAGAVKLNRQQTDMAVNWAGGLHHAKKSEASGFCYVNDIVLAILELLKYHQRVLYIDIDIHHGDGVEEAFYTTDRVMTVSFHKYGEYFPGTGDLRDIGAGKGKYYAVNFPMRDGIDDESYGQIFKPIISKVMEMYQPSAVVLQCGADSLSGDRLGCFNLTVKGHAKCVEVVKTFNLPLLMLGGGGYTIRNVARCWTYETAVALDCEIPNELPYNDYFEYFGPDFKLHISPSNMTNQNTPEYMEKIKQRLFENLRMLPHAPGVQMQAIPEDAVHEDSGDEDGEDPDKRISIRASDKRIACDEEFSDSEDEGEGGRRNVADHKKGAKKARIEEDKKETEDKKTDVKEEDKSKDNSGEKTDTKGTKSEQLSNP
smiles,measurement,setting,value
COc1ccc(S(=O)(=O)N2CCc3cccc(NCc4ccc(C(=O)Nc5ccccc5N)cc4)c32)cc1,IC50,MKN-45,63 nM
same,IC50,Histone deacetylase 1,221 nM
same,inhibition,Tubulin (Bos taurus),69.9%
same,inhibition,[1],Active
same,IC50,[2],43.9 nM
same,IC50,Histone deacetylase 9,Not Active
same,IC50,Histone deacetylase 2,662 nM
same,Activity,[3],Non-Toxic
same,TGI,BJAB [4],Active
same,IC50,[5],10000 nM
same,IC50,A549,79 nM
same,IC50,[6],314 nM
same,viability at 0.04 µM,BJAB [7],50%
same,Activity,[8],Non-Toxic
same,viability at 0.02 µM,BJAB [9],70%
